A short description of series [1]: logP determination by HPLC on a reversed-phase column (C 18), EEC Directive 79/831 Annex V.A8. The note with it: reversed-phase HPLC column (C 18), pH 2.3, HPLC. In kind it is physicochemical. The method, then:
The logp values given in the tables and Preparation Examples above are determined in accordance with EEC Directive 79/831 Annex V .A8 by HPLC (High Performance Liquid Chromatography) on a reversed-phase column (C 18). Temperature: 43° C.
The determination is carried out in the acidic range at pH 2.3 using the mobile phases 0.1% aqueous phosphoric acid and acetonitrile; linear gradient from 10% acetonitrile to 90% acetonitrile.
Calibration is carried out using unbranched alkan-2-ones (of 3 to 16 carbon atoms) with known logp values (determination of the logp values by the retention times using linear interpolation between two successive alkanones).

[2] abbreviates: acidic range pH 2.3, pyrrolines of the formula (I), read-out: logP*.
Setting [3] is: pH 2.3, read-out: log P (pH 2.3).
Where [4] appears, read: acidic range pH 2.3, amides of the formula (II), read-out: logP*.

This is an account of results in patent publication US20040054194A1, “Method for producing 1-pyrrolines” (priority 2003, published 2004).

SMILES strings stand for the structures. Where two headings read alike, the source gives them in different places.

With `Fc1cccc(F)c1C1=NC(c2ccc(Br)cc2)CC1` (centres unmarked) [Example I-1, 2-(4-bromophenyl)-5-(2,6-difluorophenyl)-3,4-dihydro-2H-pyrrole], the melting point came to 48 °C. Besides, the chromatographic logP in series [1] (setting [2]) came out at 2.77. Moreover, the chromatographic logP in series [1] (setting [3]) turned out to be 2.74.

As for `Fc1cccc(F)c1C1=NC(c2ccc(Cl)cc2)CC1` (centres unmarked) [Example I-2, 2-(4-chlorophenyl)-5-(2,6-difluorophenyl)-3,4-dihydro-2H-pyrrole], the chromatographic logP in series [1] (setting [2]) and in series [1] (setting [3]) was 2.59 each time.

`CC(=O)NC(CCC(=O)c1c(F)cccc1F)c1ccc(Br)cc1` (centres unmarked) [II-1, N-[1-(4-bromophenyl)-4-(2,6-difluorophenyl)-4-oxobutyl]acetamide]: the melting point lay in the range of 162 to 163 °C. In series [1] (setting [4]), the chromatographic logP was 2.67. Besides, in series [1] (setting [3]), the chromatographic logP was 2.67.

With `CC(=O)NC(CCC(=O)c1c(F)cccc1F)c1ccc(Cl)cc1` (centres unmarked) [II-2, N-[1-(4-chlorophenyl)-4-(2,6-difluorophenyl)-4-oxobutyl]acetamide], the chromatographic logP in series [1] (setting [4]) and in series [1] (setting [3]) was 2.59 in each case.

Regarding `CC(=O)NC(CCC(=O)c1c(F)cccc1F)c1ccc(-c2ccc(OC(F)(F)F)cc2)cc1` (centres unmarked) [II-3], the chromatographic logP in series [1] (setting [4]) turned out to be 3.79.

In the case of `O=C(c1c(F)cccc1F)C1CC1c1ccc(Br)cc1` (centres unmarked) [III-1, [2-(4-bromophenyl)cyclopropyl](2,6-difluoro-phenyl)methanone], the melting point lay in the range of 64 to 65 °C. For the same molecule, the chromatographic logP in series [1] (acidic range pH 2.3, cyclopropanes of the formula (III), read-out: logP*) was determined as 4.22. In addition, the chromatographic logP in series [1] (setting [3]) was 4.24.

As for `O=C(/C=C/c1ccc(Br)cc1)c1c(F)cccc1F` [VI-1, (2E)-3-(4-bromophenyl)-1-(2,6-difluorophenyl)-2-propen-1-one], the melting point turned out to be 71 °C. Further, the chromatographic logP in series [1] (acidic range pH 2.3, chalcones of the formula (VI), read-out: logP*) turned out to be 3.98. Moreover, the chromatographic logP in series [1] (setting [3]) came out at 3.98.

As a reminder, the melting point is the temperature of the solid-liquid transition.
